Data set [1] in a line: Tmax in Sprague-Dawley rat at 3 mg/kg, po by RP-HPLC analysis. Type of data set: ADME, organism-based. Particulars: in vivo.
The target of data set [2] is Serine/threonine-protein kinase mTOR (Homo sapiens, UniProt P42345). The data set is described as follows: Inhibition of recombinant mTOR (unknown origin) using 4EBP1 as substrate by TR-FRET assay.
In the next data set the test system is Cynomolgus monkey. The data set is described as follows: Ex-vivo inhibition of PI3Kdelta in po dosed cynomolgus monkey assessed as reduction in anti-IgM-induced AKT phosphorylation at ser473 residue in whole blood pretreated up to 24 hrs followed by anti-IgM stimulation after 20 mins by flow cytometric analysis. Type of data set: functional, organism-based. Particulars: Macaca fascicularis. For orientation: A flow cytometer gives signals particle by particle.

A short description of data set [3]: Terminal half life in cynomolgus monkey at 0.1 mg/kg, iv by RP-HPLC analysis. It counts as ADME, organism-based, Macaca fascicularis. Particulars: in vivo, read-out: beta t1/2 (converted).
Data set [4] has as its target Phosphatidylinositol 3-kinase catalytic subunit type 3 (Homo sapiens, UniProt Q8NEB9). The data set is described as follows: Inhibition of Vps34 (unknown origin) using phosphatidyl inositol/n-Octyl-glucoside as substrate measured after 30 mins by KinaseGlo assay. A general note: Kinase-Glo measures the ATP left after a reaction by luminescence.

A value given as a limit tells only on which side of the number the result lay.

Chain of Phosphatidylinositol 3-kinase catalytic subunit type 3 (Q8NEB9 whole entry): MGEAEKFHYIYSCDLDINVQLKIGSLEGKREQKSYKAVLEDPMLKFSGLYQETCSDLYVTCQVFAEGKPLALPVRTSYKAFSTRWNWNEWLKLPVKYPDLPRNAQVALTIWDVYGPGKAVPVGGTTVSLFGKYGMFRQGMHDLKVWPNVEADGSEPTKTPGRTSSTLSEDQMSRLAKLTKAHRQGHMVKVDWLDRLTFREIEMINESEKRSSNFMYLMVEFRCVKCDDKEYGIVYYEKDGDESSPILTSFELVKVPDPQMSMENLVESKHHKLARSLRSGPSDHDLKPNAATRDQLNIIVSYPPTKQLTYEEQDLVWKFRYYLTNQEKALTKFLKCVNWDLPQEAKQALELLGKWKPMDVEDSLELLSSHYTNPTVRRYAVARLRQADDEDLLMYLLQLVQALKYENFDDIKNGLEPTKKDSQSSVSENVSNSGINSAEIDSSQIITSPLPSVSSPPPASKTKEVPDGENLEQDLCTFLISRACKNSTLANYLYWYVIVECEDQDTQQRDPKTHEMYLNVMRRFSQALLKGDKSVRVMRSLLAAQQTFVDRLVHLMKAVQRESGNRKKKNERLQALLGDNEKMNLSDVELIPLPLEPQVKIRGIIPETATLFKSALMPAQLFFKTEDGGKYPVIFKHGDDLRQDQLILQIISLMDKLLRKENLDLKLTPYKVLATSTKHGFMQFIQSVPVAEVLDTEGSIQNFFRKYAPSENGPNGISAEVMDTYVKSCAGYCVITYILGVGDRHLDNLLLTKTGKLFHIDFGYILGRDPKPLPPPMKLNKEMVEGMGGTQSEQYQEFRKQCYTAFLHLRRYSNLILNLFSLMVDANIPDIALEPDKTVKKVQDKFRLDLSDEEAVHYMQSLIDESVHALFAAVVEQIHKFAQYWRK

`CCC(=O)N1CC[C@H](Nc2ncnc3c2CN(c2cnc(OC)c(C(F)(F)F)c2)CC3)C1` [LENIOLISIB]: the Tmax in data set [1] turned out to be 24 min. Moreover, the IC50 in data set [2] is above 9.1 µM; with Cynomolgus monkey, 84 to 140 nM; in data set [4], above 9.1 µM. For the same molecule, in data set [3], the half-life is 42 min.

One may read the Tmax as the time at which the peak concentration occurs. Broadly, the IC50 is the point on the concentration scale where inhibition reaches its midpoint.

The values above are taken from ChEMBL document CHEMBL4130456 (ACS Med Chem Lett, 2017).
